{"source": "patent US10716773B2", "about": "“Compositions comprising 15-HEPE and methods of treating or preventing cancer and neurologic disease” (Afimmune Limited, priority 2015, dated 2020)", "key": {"[1]": {"system": "normal human dermal fibroblasts (NHDF)", "test": "MTT reduction assay and observation of the cell layers: viability of fibroblasts after 48 hours of incubation; as to Morpholigical observations: key: +: normal population; +/−: growth reduction; −: toxicity; 0: cell mortality; grains of compound; opacity of the compound; *: morphological modification; agglutinated cells", "type": "cell-based", "conditions": "for Visability (%): single replicates", "experimental": "Normal human dermal fibroblasts (NHDF) were used at the 8th passage. Cells were cultured at 37° C., 5% CO2 in DMEM supplemented with L-glutamine 2 mM, 50 U/ml Penicillin, 50 μg/ml Streptomycin and 10% Foetal calf serum (FCS)."}, "[2]": {"system": "caspase-3/7", "test": "Staurosporine-induced caspase-3/7 activity in NHDF, measured in cell lysates with fluorogenic substrate Ac-DEVD-AMC", "type": "cell-based, human", "conditions": "staurosporine-stimulated NHDF; for Caspase-3/7 activity (Fluorescence 380 nm/440 nm) / Caspase-3/7 activity - Background (Fluorescence 380 nm/440 nm) / Caspese-3/7 activity/proteins: single replicates", "experimental": "The potential inhibitory effect of compounds 15(S)-HEPE EE and EPA EE was evaluated on staurosporine-induced caspase activation in normal human dermal fibroblasts (NHDF). […] Normal human dermal fibroblasts (NHDF) were used at the 8th passage. […] Fibroblasts were seeded in 24-well plates and cultured for 24 hours in culture medium. The medium was then removed and replaced by assay medium containing or not (control) the test compounds and cells were pre-incubated for 24 hours. […] The cells were then incubated for 24 hours. Non-stimulated controls (without inducer) were performed in parallel. All experimental conditions were performed in n=3. […] Enzyme activity assay and protein quantification assay were performed in separated plates due to the fact that DTT used in the lysis buffer for caspase activity interferes with protein quantification. […] Lysis buffer: HEPES buffer (pH 7.4) containing EDTA, Triton X-100, NP-40 and DTT Assay Buffer: HEPES buffer (pH 7.4) containing NaCl, EDTA, NP-40, glycerol and DTT Substrate: Ac-DEVD-AMC, tested at 10 μM (stock solution at 1.5 mM in DMSO) Reference inhibitor: […] Ac-DEVD-AMC is a synthetic tetrapeptide fluorogenic substrate for caspase-3 and caspase-7 and contains the amino acid sequence of the PARP cleavage site at […]. […] Enzymes cleave the tetrapeptide between D and AMC resulting in the release of fluorogenic AMC, which can be quantified with a spectrofluorometer. […] In parallel, an additional control (assay buffer containing the substrate) was also performed to determine the background signal. At the end of incubation, the fluorescence intensity emitted by the reaction product (cleaved Ac-DEVD-AMC) was measured at wavelengths λex 380 nm and λem 440 nm using a spectrofluorimeter (SPECTRAmax® Gemini, Molecular Devices)."}}, "note": "“And” between values parts separate entries of the source, which are not always exact repeats. Equal entries are not always repeated.", "data": [{"smiles": "CC/C=C\\C/C=C\\C/C=C\\C/C=C\\C/C=C\\CCCC(=O)OCC", "note": "[EPA EE]", "values": [{"measurement": "Morpholigical observations", "setting": "[1]; 0.001 μg/ml", "result": "+"}, {"measurement": "Visability (%) Mean", "setting": "[1]; 0.001 μg/ml", "result": 100, "unit": "%"}, {"measurement": "Visability (%)", "setting": "[1]; 0.001 μg/ml", "result": "99% and 97% and 104%"}, {"measurement": "Morpholigical observations", "setting": "[1]; 0.01 μg/ml", "result": "+"}, {"measurement": "Visability (%) Mean", "setting": "[1]; 0.01 μg/ml", "result": 98, "unit": "%"}, {"measurement": "Visability (%)", "setting": "[1]; 0.01 μg/ml", "result": "101% and 94% and 98%"}, {"measurement": "Morpholigical observations", "setting": "[1]; 0.1 μg/ml", "result": "+"}, {"measurement": "Visability (%) Mean", "setting": "[1]; 0.1 μg/ml", "result": 99, "unit": "%"}, {"measurement": "Visability (%)", "setting": "[1]; 0.1 μg/ml", "result": "99% (2×) and 98%"}, {"measurement": "Morpholigical observations", "setting": "[1]; 1 μg/ml", "result": "+"}, {"measurement": "Visability (%) Mean", "setting": "[1]; 1 μg/ml", "result": 97, "unit": "%"}, {"measurement": "Visability (%)", "setting": "[1]; 1 μg/ml", "result": "95% (2×) and 100%"}, {"measurement": "Morpholigical observations", "setting": "[1]; 10 μg/ml", "result": "+"}, {"measurement": "Visability (%) Mean", "setting": "[1]; 10 μg/ml", "result": 97, "unit": "%"}, {"measurement": "Visability (%)", "setting": "[1]; 10 μg/ml", "result": "94% and 98% and 100%"}, {"measurement": "Morpholigical observations", "setting": "[1]; 30 μg/ml", "result": "+"}, {"measurement": "Visability (%) Mean", "setting": "[1]; 30 μg/ml", "result": 96, "unit": "%"}, {"measurement": "Visability (%)", "setting": "[1]; 30 μg/ml", "result": "99% and 95% and 93%"}, {"measurement": "Morpholigical observations", "setting": "[1]; 100 μg/ml", "result": "+"}, {"measurement": "Visability (%) Mean", "setting": "[1]; 100 μg/ml", "result": 100, "unit": "%"}, {"measurement": "Visability (%)", "setting": "[1]; 100 μg/ml", "result": "102% and 98% and 100%"}, {"measurement": "Morpholigical observations", "setting": "[1]; 300 μg/ml", "result": "+"}, {"measurement": "Visability (%) Mean", "setting": "[1]; 300 μg/ml", "result": 106, "unit": "%"}, {"measurement": "Visability (%)", "setting": "[1]; 300 μg/ml", "result": "105% and 107% and 106%"}, {"measurement": "% inhibition", "setting": "[2]; 0.001 μg/ml", "result": "−31", "unit": "%"}, {"measurement": "% stimulated control", "setting": "[2]; 0.001 μg/ml", "result": 128, "unit": "%"}, {"measurement": "Normalized data: Mean (caspase-3/7 activity/proteins)", "setting": "[2]; 0.001 μg/ml", "result": 113173, "unit": "AU/mg"}, {"measurement": "Caspase-3/7 activity (Fluorescence 380 nm/440 nm)", "setting": "[2]; 0.001 μg/ml", "result": "1457 AU and 1667 AU and 1637 AU"}, {"measurement": "Caspase-3/7 activity - Background (Fluorescence 380 nm/440 nm)", "setting": "[2]; 0.001 μg/ml", "result": "1140 AU and 1350 AU and 1320 AU"}, {"measurement": "Caspese-3/7 activity/proteins", "setting": "[2]; 0.001 μg/ml", "result": "100237 AU/mg and 128199 AU/mg and 111084 AU/mg"}, {"measurement": "% inhibition", "setting": "[2]; 0.01 μg/ml", "result": "−1", "unit": "%"}, {"measurement": "% stimulated control", "setting": "[2]; 0.01 μg/ml", "result": 101, "unit": "%"}, {"measurement": "Normalized data: Mean (caspase-3/7 activity/proteins)", "setting": "[2]; 0.01 μg/ml", "result": 89425, "unit": "AU/mg"}, {"measurement": "Caspase-3/7 activity (Fluorescence 380 nm/440 nm)", "setting": "[2]; 0.01 μg/ml", "result": "1359 AU and 1476 AU and 1472 AU"}, {"measurement": "Caspase-3/7 activity - Background (Fluorescence 380 nm/440 nm)", "setting": "[2]; 0.01 μg/ml", "result": "1042 AU and 1159 AU and 1155 AU"}, {"measurement": "Caspese-3/7 activity/proteins", "setting": "[2]; 0.01 μg/ml", "result": "89522 AU/mg and 89043 AU/mg and 89708 AU/mg"}, {"measurement": "% inhibition", "setting": "[2]; 0.1 μg/ml", "result": 5, "unit": "%"}, {"measurement": "% stimulated control", "setting": "[2]; 0.1 μg/ml", "result": 95, "unit": "%"}, {"measurement": "Normalized data: Mean (caspase-3/7 activity/proteins)", "setting": "[2]; 0.1 μg/ml", "result": 84209, "unit": "AU/mg"}, {"measurement": "Caspase-3/7 activity (Fluorescence 380 nm/440 nm)", "setting": "[2]; 0.1 μg/ml", "result": "1474 AU and 1382 AU and 1558 AU"}, {"measurement": "Caspase-3/7 activity - Background (Fluorescence 380 nm/440 nm)", "setting": "[2]; 0.1 μg/ml", "result": "1157 AU and 1065 AU and 1241 AU"}, {"measurement": "Caspese-3/7 activity/proteins", "setting": "[2]; 0.1 μg/ml", "result": "83312 AU/mg and 79809 AU/mg and 89506 AU/mg"}, {"measurement": "% inhibition", "setting": "[2]; 1 μg/ml", "result": "−3", "unit": "%"}, {"measurement": "% stimulated control", "setting": "[2]; 1 μg/ml", "result": 103, "unit": "%"}, {"measurement": "Normalized data: Mean (caspase-3/7 activity/proteins)", "setting": "[2]; 1 μg/ml", "result": 90527, "unit": "AU/mg"}, {"measurement": "Caspase-3/7 activity (Fluorescence 380 nm/440 nm)", "setting": "[2]; 1 μg/ml", "result": "1423 AU and 1604 AU and 1486 AU"}, {"measurement": "Caspase-3/7 activity - Background (Fluorescence 380 nm/440 nm)", "setting": "[2]; 1 μg/ml", "result": "1106 AU and 1287 AU and 1169 AU"}, {"measurement": "Caspese-3/7 activity/proteins", "setting": "[2]; 1 μg/ml", "result": "87358 AU/mg and 96851 AU/mg and 87370 AU/mg"}, {"measurement": "% inhibition", "setting": "[2]; 10 μg/ml", "result": 2, "unit": "%"}, {"measurement": "% stimulated control", "setting": "[2]; 10 μg/ml", "result": 98, "unit": "%"}, {"measurement": "Normalized data: Mean (caspase-3/7 activity/proteins)", "setting": "[2]; 10 μg/ml", "result": 86723, "unit": "AU/mg"}, {"measurement": "Caspase-3/7 activity (Fluorescence 380 nm/440 nm)", "setting": "[2]; 10 μg/ml", "result": "1335 AU and 1264 AU and 1458 AU"}, {"measurement": "Caspase-3/7 activity - Background (Fluorescence 380 nm/440 nm)", "setting": "[2]; 10 μg/ml", "result": "1018 AU and 947 AU and 1141 AU"}, {"measurement": "Caspese-3/7 activity/proteins", "setting": "[2]; 10 μg/ml", "result": "78044 AU/mg and 76787 AU/mg and 105337 AU/mg"}, {"measurement": "% inhibition", "setting": "[2]; 100 μg/ml", "result": 61, "unit": "%"}, {"measurement": "% stimulated control", "setting": "[2]; 100 μg/ml", "result": 45, "unit": "%"}, {"measurement": "Normalized data: Mean (caspase-3/7 activity/proteins)", "setting": "[2]; 100 μg/ml", "result": 39319, "unit": "AU/mg"}, {"measurement": "effect on caspase-3/7 activity (in words)", "setting": "[2]; 100 μg/ml", "result": "clear inhibitory effect"}, {"measurement": "Caspase-3/7 activity (Fluorescence 380 nm/440 nm)", "setting": "[2]; 100 μg/ml", "result": "807 AU and 843 AU and 1068 AU"}, {"measurement": "Caspase-3/7 activity - Background (Fluorescence 380 nm/440 nm)", "setting": "[2]; 100 μg/ml", "result": "490 AU and 526 AU and 751 AU"}, {"measurement": "Caspese-3/7 activity/proteins", "setting": "[2]; 100 μg/ml", "result": "29572 AU/mg and 37623 AU/mg and 50763 AU/mg"}, {"measurement": "effect on caspase-3/7 activity (in words)", "setting": "[2]; tested from 0.001 to 10 μg/ml", "result": "no effect"}]}]}
